We go through 4 compounds from US20160032005A1, “METHODS AND PHARMACEUTICALS COMPOSITIONS FOR TREATING BREAST CANCERS” (INSERM (Institut National de la Sante et de la Recherche …, priority 2014, published 2016).

For one experiment, the system named is p62. Briefly: p62 immunolocalization and protein level under autophagy modulators. It is filed as cell-based. Conditions: breast cancer and Hela cells. The source says: (§1) We next addressed the potential colocalization of Vangl2 and p62 in SUM149 cells by immunofluorescence and confocal analysis. In these cells, Vangl2 and p62 have a punctate cytoplasmic pattern and colocalization between the two proteins was seen puncta in the perinuclear region. Specificity of the Vangl2 signal is attested by lack of staining in cells treated with shVangl2. p62 is present in autophagosomes where it accumulates ubiquitinylated proteins bound to its UBA domain for autophagic degradation. Autophagy is active when the fusion between autophagosomes and lysosomes occur leading to the formation of autophagolysosomes endowed with degradative properties. The fusion process, and therefore autophagy, can be inhibited by Bafilomycin A1, an inhibitor of the vacuolar ATPase that blocks the fusion process by blocking the membrane-bound lysosomal vacuolar ATPase (V-ATPase) to prevent the lysosomal lumen acidification responsible for cathepsin activation. Alternatively, autophagy can be induced by rapamycin, an inhibitor of mTOR [38]. […] Decrease of p62 protein level can also be monitored by western blot. Vangl2 protein levels remained unmodified by rapamycin treatment while another prominent feature of autophagy, i.e. degradation of p62 was readily seen. […]

For another experiment, the system named is Vangl2. Briefly: Vangl2 protein level (western blot) and cellular distribution under autophagy modulators. It is filed as cell-based.
Text: as §1
(In western blotting, separated proteins are transferred to a membrane and probed.)

The test system of a further experiment is JNK signaling. The experiment in a line: JNK signaling in SUM149 cells. Particulars: compared to GFP alone or shLuc. It is filed as cell-based. The source says: (§2) As JNK signaling is usually activated following PCP activation, we next investigated this pathway in SUM149 cells. As previously shown, down-regulation of Vangl2 leads to a decrease in JNK signaling as shown using a time-dependent FCS stimulation of SUM149 transfected with shVangl2 compared to shLuc. No change in phosphorylation of GSK3 was evidenced in the absence of Vangl2. […] Knock-down of p62 expression in SUM149 cells phenocopied lack of Vangl2 expression. […] Next, we fused the p62 (346-388) sequence to GFP and expressed the construct in SUM149 cells. […] Indeed, this construct was able to specifically coimmunoprecipitate with Vangl2 and furthermore compete with the endogenous Vangl2-p62 interaction as shown by the decreased amount of endogenous p62 associated with Vangl2. In order to assess the contribution of the Vangl2-p62 interaction in JNK signaling, we utilized the dominant negative region of p62 and expressed this as a GFP-tagged protein.

Experiment [1] has as its target T1, Vangl2-p62 interaction (Homo sapiens, UniProt Q9ULK5).
T1 construct: endogenous in cells; host or cells: SUM149 cells / cell extracts
T1 sequence (Q9ULK5 1-521): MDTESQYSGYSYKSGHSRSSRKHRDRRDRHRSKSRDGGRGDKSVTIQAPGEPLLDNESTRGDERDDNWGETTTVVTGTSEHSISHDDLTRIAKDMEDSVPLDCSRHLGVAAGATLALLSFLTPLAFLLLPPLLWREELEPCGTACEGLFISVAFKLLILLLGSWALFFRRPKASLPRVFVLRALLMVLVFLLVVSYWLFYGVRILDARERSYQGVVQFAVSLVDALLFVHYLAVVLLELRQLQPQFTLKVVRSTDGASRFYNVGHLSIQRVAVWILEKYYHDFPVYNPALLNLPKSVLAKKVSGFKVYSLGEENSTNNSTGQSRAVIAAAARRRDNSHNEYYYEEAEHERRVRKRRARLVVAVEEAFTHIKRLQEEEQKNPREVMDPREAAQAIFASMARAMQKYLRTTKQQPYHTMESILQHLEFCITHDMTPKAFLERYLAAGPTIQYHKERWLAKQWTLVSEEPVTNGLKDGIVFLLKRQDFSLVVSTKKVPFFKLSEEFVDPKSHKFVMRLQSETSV
The experiment in a line: Co-immunoprecipitation in SUM149 cells expressing the construct. Particulars: construct expressed in SUM149 cells, compared to GFP alone. It is filed as cell-based.
Text: as §2

In experiment [2] the test system is SUM149 cells. The experiment in a line: Cell migration assay (Boyden chamber, serum as chemo-attractant). Conditions: compared to Venus ctrl or shLuc. It is filed as cell-based.
Experiment [3] relates to SUM149 cells. The experiment in a line: Long-term cell proliferation and anchorage-independent soft agar assays. Conditions: compared to Venus ctrl or shLuc. It is filed as cell-based. The text has this:
In order to challenge the role of Vangl2 in tumor growth, we first designed different short hairpin RNA (shRNA) to downregulate Vangl2 protein expression in SUM149, a basal breast cancer cell line, which were targeted to different sequences of the VANGL2 gene. Vangl2 expression is decreased by approximately 90% with shVangl2 (clone 3.6.9 and 3.2.12) compared shLuc controls. […] Behaviour of shLuc-SUM149 and shVangl2-SUM149 cells was next compared in long-term cell proliferation and anchorage-independent experiments using soft agar assays. Cell proliferation and in vitro tumorigenicity of SUM149 cells were decreased when expression of Vangl2 was decreased using shVangl2 clone 3.6.9. This effect was confirmed using a second shVangl2 clone 3.2.12. The tumorigenic potential of Vangl2 was next assessed in vivo by performing subcutaneous xenografts in NOG mice. Orthotopic injections of shLuc-SUM149 and shVangl2-SUM149 cells were performed and tumour growth was periodically measured.
As JNK signaling is usually activated following PCP activation, we next investigated this pathway in SUM149 cells. As previously shown, down-regulation of Vangl2 leads to a decrease in JNK signaling as shown using a time-dependent FCS stimulation of SUM149 transfected with shVangl2 compared to shLuc. No change in phosphorylation of GSK3 was evidenced in the absence of Vangl2. […]

Experiment [4] deals with T1, Vangl2-p62 interaction. Briefly: Competition of endogenous Vangl2-p62 interaction recovered by immunoprecipitation, peptide incubated in SUM149 cell extracts. It is filed as binding. Particulars: SUM149 cells / cell extracts.

For `CO/C1=C\C(C)=C\[C@@H](C)[C@@H](O)[C@@H](C)C/C(C)=C/C=C/[C@H](OC)[C@@H]([C@@H](C)[C@@H](O)[C@H](C)[C@@]2(O)C[C@@H](O)[C@H](C)[C@@H](C(C)C)O2)OC1=O` [Bafilomycin A1], in the experiment with p62, the p62 immunolocalization result was “accumulates”. Further, the Vangl2 protein levels entry in the experiment on Vangl2 is listed as “not modified”.
Consider “GFP-p62 (346-388): p62 (346-388) sequence fused to GFP, expressed in SUM149 cells”, for which, in the experiment with JNK signaling, the JNK signalling entry was “decrease”. In addition, the “effect on endogenous Vangl2-p62 interaction in co-immunoprecipitation” value in the experiment with Vangl2-p62 interaction [1] is “dominant-negative effect”.
Regarding “Venus-p62 (346-388): Venus-tagged p62 (346-388) expressed by lentiviral infection”, the cell migration entry in the experiment on SUM149 cells [2] is “decrease”. Moreover, in the experiment with SUM149 cells [3], the “colonies in soft agar / in vitro tumorigenicity” value was “fewer colonies”.
As to “polypeptide (346-371): polypeptide reduced in size, residues 346-371 of p62 (SEQ ID NO:2) (VDPSTGELQSLQMPESEGPSSLDPSQ; listed as Homo sapiens)”, the “disruption of the endogenous Vangl2-p62 interaction” value in the experiment with Vangl2-p62 interaction [4] was “able to inhibit”.
